Assay results: US10508103B2, “Benzimidazole-linked indole compound acting as novel divalent IAP antagonist” (MEDSHINE DISCOVERY INC., priority 2016, dated 2019)

Tests used:
[1] = test system: NF-κB Luciferase Reporter Hela cells; experiment: TNF-α inducing NF-κB reporter; assay type: cell-based; conditions: Homo sapiens, 6 h, Bright-Glo luciferase
Experimental: Biological Assay 2: TNF-α inducing NF-κB reporter
• 1) tested compounds were added into DMSO to give parent liquor (10 mM); • 2) reference compound Birinapant (32 μL, 10 mM) was added into DMSO (128 μL) to give a solution (2 mM); • 3) 0.5 μL reference compound Birinapant (2 mM) and tested compounds (10 mM) were taken by Echo and added into Greiner 96 well black cell culture plate respectively. The initial concentration of the reference compound and tested compound was 10 μM and 50 μM, respectively. Then, the reference compound and tested compounds were diluted at 9 points in series by 5-fold; and every plate was repeated for 3 times. • 4) the reference compound WXFL2012A001 (Birinapant) (final concentration: 10 μM) as HPE and DMSO (final concentration: 0.5%) as ZPE.
• 5) purpose of the three repeated plates: the first plate was used for testing compounds' activity;
the second plate was used for testing cytotoxicity of the compounds; the third plate was used for solution replacement of the first and second plates: mixing inducer TNF-α and medium containing 0.1% FBS, and then being added to the third plate and the resultant mixture was transferred to the first plate where supernatants had been removed.
• 1) removing medium in NF-iBLuciferase Reporter Hela cell culture flask and washing cell once with PBS (10 mL) • 2) adding 0.25% pancreatin (3 mL) to T150 cell culture flask, and placinginto cell incubator (37° C., 5%CO2) and dissociating cell for 3 min, and then medium (10 mL) was added to end dissociation and blowing cells with electric pipette until cells were dispersed into single cell. • 3) Calculating cell density with cell counter Countstar • 4) Adjusting NF-κB Luciferase Reporter Hela density with medium to 2.0×10^5 cells/mL • 5) Adding cells to two Greiner 96 well black cell culture plates containing compounds, (100 μL per well (2.0×10^4 cells/well)), one plate was used for testing compounds' activity, another was used for testing cytotoxicity of the compounds. • 6) Placing cell culture plates into cell incubator (37° C., 5%CO2) and incubatingfor 24 h Second Day TNF-α Inducing • 1) TNF-α (100 μg/mL) was diluted into 20 ng/mL with 0.1% FBS medium and transferredto the third plate with 100 μL per well • 2) Removing medium of the first 96 well black cell culture plate (compound activity testing plate) after 24 h, replacing with fresh medium containing the compound and 20 ng/mL TNF-α in the third plate • 3) Placing cell culture plate into cell incubator (37° C., 5% CO2) and incubatingfor 6 h • 4) after 6 h, compound's activity in the first plate was tested according to Bright-Glo (Promega) manual method, luciferase signal in each well was tested by Envision plate reader • 5) compound's cytotoxicity in the second plate was tested according to ATPlite 1Step (Perkin Elmer) manual method, luciferase signal in each well was tested by Envision plate reader • 6) analyzing with software to obtain EC50 of compound.

cIAP2-BIR3 Protein = cIAP2-BIR3 Protein (Homo sapiens (Human), UniProt Q13489); experiment: Fluorescence polarization affinity of compounds to cIAP2-BIR3; assay type: binding; conditions: cIAP2-BIR3 60 nM; 5 nM ARPFAQ-K(5-FAM)-NH2 probe; FP; pH 7.5; read-out: affinity to target protein in vitro, cIAP2-BIR3 Protein (IC50)
Experimental: (§1) Biological Assay 1: affinity of compounds to cIAP1-BIR3, cIAP2-BIR3, XIAP-BIR3 • 1) Affinity of compounds listed in table to cIAP1-BIR3, Ciap2-BIR3, XIAP-BIR3 was tested referring to Nikolovska-Colesks, Z. et.Al. (Analytical Biochemistry,2004,232:261-273) to obtain IC50 value. Generally speaking, in 10-dose IC50 mode, IAP antagonists with different concentrations were diluted in series by 3-fold and fluorescence labelled ARPFAQ-K (5-FAM)-NH2 peptide was used as probe to test compounds binding to protein BIR3 domain. • 2) Test condition: cIAP1-BIR3: 20 nM; cIAP2-BIR3: 60 nM; XIAP-BIR3: 30 nM; 5 nM probe in 100 mM tripotassium phosphate, pH 7.5, 0.1 mg/mL BSA, 0.005% Triton X100 and 0.5% DMSO. • 3) Test procedure: compounds were added into protein with different concentrations by using ECHO (LabCyte), and then the mixture was preincubated for 15 min. The probe was added and the final concentration was 5 nM. After incubating for 60 min, FP was tested and mP was calculated. Experiment results were list in table 1.

XIAP-BIR3 Protein = XIAP-BIR3 Protein (Homo sapiens (Human), UniProt P98170); experiment: Fluorescence polarization affinity of compounds to XIAP-BIR3; assay type: binding; conditions: XIAP-BIR3 30 nM; 5 nM ARPFAQ-K(5-FAM)-NH2 probe; FP; pH 7.5; read-out: affinity to target protein in vitro, XIAP-BIR3 Protein (IC50)
Experimental: as §1

cIAP1-BIR3 Protein = cIAP1-BIR3 Protein (Homo sapiens (Human), UniProt Q13490); experiment: Fluorescence polarization affinity of compounds to cIAP1-BIR3; assay type: binding; conditions: cIAP1-BIR3 20 nM; 5 nM ARPFAQ-K(5-FAM)-NH2 probe; FP; pH 7.5; read-out: affinity to target protein in vitro, cIAP1-BIR3 Protein (IC50)
Experimental: as §1

[2] = Table 4, 20 ng/mL TNF-α, exact values with control Birinapant
[3] = Table 3, 20 ng/mL TNF-α, values given as ranges

cIAP1-BIR3 Protein, sequence (Q13490 253-363): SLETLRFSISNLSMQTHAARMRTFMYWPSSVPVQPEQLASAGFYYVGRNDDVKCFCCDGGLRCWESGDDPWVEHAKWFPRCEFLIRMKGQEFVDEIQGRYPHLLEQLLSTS
XIAP-BIR3 Protein, sequence (P98170 241-356): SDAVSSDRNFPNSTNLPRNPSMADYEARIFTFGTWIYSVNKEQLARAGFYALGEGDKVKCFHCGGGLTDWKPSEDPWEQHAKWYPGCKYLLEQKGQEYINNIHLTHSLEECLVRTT
cIAP2-BIR3 Protein, sequence (Q13489 238-349): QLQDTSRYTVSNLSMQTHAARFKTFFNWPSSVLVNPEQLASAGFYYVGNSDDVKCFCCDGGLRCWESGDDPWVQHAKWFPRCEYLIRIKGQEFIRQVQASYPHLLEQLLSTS

Row | Compound | EC50 [1, 3] | also measured
1 | CC[C@H](NC(=O)[C@H](C)NC)C(=O)N1C[C@@H](O)C[C@H]1Cc1c(-c2[nH]c3cc(F)ccc3c2C[C@@H]2C[C@H](O)CN2C(=O)[C@H](CC)NC(=O)[C@H](C)NC)[nH]c2cc(F)ccc12 [Birinapant, reference compound] |  | EC50 [1, 2]: 7.05 nM
2 | CN[C@@H](C)C(=O)N[C@H](C(=O)N1CCC[C@H]1Cc1c(-c2nc3cc(F)ccc3n2C[C@@H]2CCCN2C(=O)[C@@H](NC(=O)[C@H](C)NC)C(C)C)[nH]c2cc(F)ccc12)C(C)C [Embodiment 1] | < 10 nM | IC50 (cIAP2-BIR3 Protein): 10 to 100 nM; EC50 [1, 2]: 7.11 nM; IC50 (XIAP-BIR3 Protein): 10 to 100 nM; IC50 (cIAP1-BIR3 Protein): < 10 nM
3 | CC[C@H](NC(=O)[C@H](C)NC)C(=O)N1CCC[C@H]1Cc1c(-c2nc3cc(F)ccc3n2C[C@@H]2CCCN2C(=O)[C@@H](NC(=O)[C@H](C)NC)C(C)(C)C)[nH]c2cc(F)ccc12 [Embodiment 3] | < 10 nM | 
4 | CC[C@H](NC(=O)[C@H](C)NC)C(=O)N1CCC[C@H]1Cc1c(-c2nc3cc(F)ccc3n2C[C@@H]2CCCN2C(=O)[C@@H](NC(=O)[C@H](C)NC)C2CCCCC2)[nH]c2cc(F)ccc12 [Embodiment 4] | 10 to 100 nM | 
5 | CC[C@H](NC(=O)[C@H](C)NC)C(=O)N1CCC[C@H]1Cn1c(-c2[nH]c3cc(F)ccc3c2C[C@@H]2CCCN2C(=O)[C@@H](NC(=O)[C@H](C)NC)C(C)(C)C)nc2cc(F)ccc21 [Embodiment 5] | 10 to 100 nM | 
6 | CC[C@H](NC(=O)[C@H](C)NC)C(=O)N1CCC[C@H]1Cn1c(-c2[nH]c3cc(F)ccc3c2C[C@@H]2CCCN2C(=O)[C@@H](NC(=O)[C@H](C)NC)C2CCCCC2)nc2cc(F)ccc21 [Embodiment 6] | 10 to 100 nM | 
7 | CCC[C@H](NC(=O)[C@H](C)NC)C(=O)N1CCC[C@H]1Cc1c(-c2nc3cc(F)ccc3n2C[C@@H]2CCCN2C(=O)[C@@H](NC(=O)[C@H](C)NC)C(C)C)[nH]c2cc(F)ccc12 [Embodiment 7] | 10 to 100 nM | 
8 | CCC[C@H](NC(=O)[C@H](C)NC)C(=O)N1CCC[C@H]1Cc1c(-c2nc3cc(F)ccc3n2C[C@@H]2CCCN2C(=O)[C@@H](NC(=O)[C@H](C)NC)C(C)(C)C)[nH]c2cc(F)ccc12 [Embodiment 8] | < 10 nM | 
9 | CCC[C@H](NC(=O)[C@H](C)NC)C(=O)N1CCC[C@H]1Cc1c(-c2nc3cc(F)ccc3n2C[C@@H]2CCCN2C(=O)[C@@H](NC(=O)[C@H](C)NC)C2CCCCC2)[nH]c2cc(F)ccc12 [Embodiment 9] | 10 to 100 nM | 
10 | CCC[C@H](NC(=O)[C@H](C)NC)C(=O)N1CCC[C@H]1Cn1c(-c2[nH]c3cc(F)ccc3c2C[C@@H]2CCCN2C(=O)[C@@H](NC(=O)[C@H](C)NC)C(C)C)nc2cc(F)ccc21 [Embodiment 10] | 10 to 100 nM | 
11 | CCC[C@H](NC(=O)[C@H](C)NC)C(=O)N1CCC[C@H]1Cn1c(-c2[nH]c3cc(F)ccc3c2C[C@@H]2CCCN2C(=O)[C@@H](NC(=O)[C@H](C)NC)C(C)(C)C)nc2cc(F)ccc21 [Embodiment 11] | 10 to 100 nM | 
12 | CCC[C@H](NC(=O)[C@H](C)NC)C(=O)N1CCC[C@H]1Cn1c(-c2[nH]c3cc(F)ccc3c2C[C@@H]2CCCN2C(=O)[C@@H](NC(=O)[C@H](C)NC)C2CCCCC2)nc2cc(F)ccc21 [Embodiment 12] | 10 to 100 nM | 
13 | CCC[C@H](NC(=O)[C@H](C)NC)C(=O)N1C[C@@H](F)C[C@H]1Cc1c(-c2nc3cc(F)ccc3n2C[C@@H]2C[C@H](F)CN2C(=O)[C@H](CCC)NC(=O)[C@H](C)NC)[nH]c2cc(F)ccc12 [Embodiment 15] | 10 to 100 nM | 
14 | CCC[C@H](NC(=O)[C@H](C)NC)C(=O)N1C[C@@H](F)C[C@H]1Cc1c(-c2nc3cc(F)ccc3n2C[C@@H]2C[C@H](F)CN2C(=O)[C@@H](NC(=O)[C@H](C)NC)C(C)(C)C)[nH]c2cc(F)ccc12 [Embodiment 33] | < 10 nM | 
15 | CCC[C@H](NC(=O)[C@H](C)NC)C(=O)N1C[C@@H](F)C[C@H]1Cc1c(-c2nc3cc(F)ccc3n2C[C@@H]2C[C@H](F)CN2C(=O)[C@@H](NC(=O)[C@H](C)NC)C2CCCCC2)[nH]c2cc(F)ccc12 [Embodiment 34] | < 10 nM | 
16 | CCC[C@H](NC(=O)[C@H](C)NC)C(=O)N1C[C@@H](F)C[C@H]1Cn1c(-c2[nH]c3cc(F)ccc3c2C[C@@H]2C[C@H](F)CN2C(=O)[C@@H](NC(=O)[C@H](C)NC)C(C)(C)C)nc2cc(F)ccc21 [Embodiment 35] | < 10 nM | 
17 | CC[C@H](NC(=O)[C@H](C)NC)C(=O)N1CCC[C@H]1Cc1c(-c2nc3cc(F)ccc3n2C[C@@H]2C[C@H](F)CN2C(=O)[C@@H](NC(=O)[C@H](C)NC)C(C)C)[nH]c2cc(F)ccc12 [Embodiment 37] | 10 to 100 nM | 
18 | CC[C@H](NC(=O)[C@H](C)NC)C(=O)N1CCC[C@H]1Cn1c(-c2[nH]c3cc(F)ccc3c2C[C@@H]2C[C@H](F)CN2C(=O)[C@@H](NC(=O)[C@H](C)NC)C(C)C)nc2cc(F)ccc21 [Embodiment 41] | 10 to 100 nM | 
19 | CN[C@@H](C)C(=O)N[C@H](C(=O)N1CC(F)(F)C[C@H]1Cc1c(-c2nc3cc(F)ccc3n2C[C@@H]2CC(F)(F)CN2C(=O)[C@@H](NC(=O)[C@H](C)NC)C(C)C)[nH]c2cc(F)ccc12)C(C)C [Embodiment 45] | 10 to 100 nM | 
20 | CC[C@H](NC(=O)[C@H](C)NC)C(=O)N1CC(F)(F)C[C@H]1Cn1c(-c2[nH]c3cc(F)ccc3c2C[C@@H]2CC(F)(F)CN2C(=O)[C@@H](NC(=O)[C@H](C)NC)C(C)C)nc2cc(F)ccc21 [Embodiment 47] | 10 to 100 nM | 
21 | CC[C@H](NC(=O)[C@H](C)NC)C(=O)N1C[C@@H](F)C[C@H]1Cc1c(-c2nc3cc(F)ccc3n2C[C@@H]2[C@@H](C)[C@@H](C)CN2C(=O)[C@H](CC)NC(=O)[C@H](C)NC)[nH]c2cc(F)ccc12 [Embodiment 48] | 10 to 100 nM | 
22 | CN[C@@H](C)C(=O)N[C@H](C(=O)N1C[C@@H](F)C[C@H]1Cc1c(-c2nc3cc(F)ccc3n2C[C@@H]2[C@@H](C)[C@@H](C)CN2C(=O)[C@@H](NC(=O)[C@H](C)NC)C(C)C)[nH]c2cc(F)ccc12)C(C)C [Embodiment 49] | < 10 nM | 
23 | CC[C@H](NC(=O)[C@H](C)NC)C(=O)N1C[C@@H](F)C[C@H]1Cc1c(-c2nc3cc(F)ccc3n2C[C@@H]2C[C@H](F)CN2C(=O)[C@@H](NC(=O)[C@H](C)NC)C(C)C)[nH]c2ccccc12 [Embodiment 50] | 10 to 100 nM | 
24 | CC[C@H](NC(=O)[C@H](C)NC)C(=O)N1C[C@@H](F)C[C@H]1Cc1c(-c2nc3cc(F)ccc3n2C[C@@H]2C[C@H](F)CN2C(=O)[C@@H](NC(=O)[C@H](C)NC)C(C)C)[nH]c2cc(Cl)ccc12 [Embodiment 51] | < 10 nM | 
